{
  "source": "patent US12673925B2",
  "about": "“Compounds and compositions for eye treatments” (Avedro, Inc., priority 2018, dated 2026)",
  "system": "cornea of porcine whole globes",
  "test": "Porcine eye corneal flattening assay",
  "conditions": "de-epithelialized porcine cornea; 0.11% w/v in saline; UVA 4 mm circle, 365 nm, 30 mW/cm^2, pulsed, 16.2 min, 15 J, 90%+ oxygen, 37.0° C.",
  "experimental": "Protocol 1 (For Examples 8, 9, 10, 17, 18, 19, 20, 28, and 29): Porcine whole globes in saline at 4° C. were warmed to room temperature. […] The eye holders were then positioned inside an enclosed chamber that allows for the control of atmosphere, temperature and humidity (typically a water bath at 37.0° C.). IOP is maintained at a constant pressure by the insertion of a blood bank buffered saline line from an IV bag at a standard height inserted into each eye via a syringe needle. 5% Dextran T500 in blood bank buffered saline is dropped onto the surface of the cornea of each eye every 90 sec for 2 hours to allow the eyes to stabilize. […] The test eye is then orientated in a vertical position and the pre-treatment surface keratometry of the cornea measured using a Pentacam® HR device fine cornea 100 scan. […] After a further 1.5 hours during which the 5% dextran drops are resumed the eye is orientated back to the vertical position and the post-treatment surface keratometry of the cornea measured using a Pentacam® HR device fine cornea 100 scan as before. The difference map between the pre and post treatment corneal images is obtained and the overall change in keratometry (Km) of the central 3 mm zone recorded as a change in diopters. […]",
  "data": [
    {"smiles": "Cc1cc2nc(-c3nnnn3C)c(=O)n(C[C@H](O)[C@H](O)[C@H](O)CO)c2cc1C", "note": "[Compound 40]", "values": [
      {"measurement": "Refractive Change (D)", "result": "−2.5", "unit": "D"}
    ]}
  ]
}
